In US20260226026A1, “COMPOUND AS CTPS1 INHIBITOR” (Hangzhou Innogate Pharma Co., Ltd., priority 2023, published 2026):
Read-outs that look alike come from different tables or passages of the source.

What was measured:
[1] = in vivo; set-up: species or system SD rats; settings: male, SD, rat, po
Protocol: Instrumentation: SCIEX Triple Quad 6500+ triple quadrupole liquid chromatography-mass spectrometry system (LC-MS/MS), operating software is Analyst 1.7.2 (Applied Biosystems, USA); ExionLC liquid chromatography system; Microsoft Excel was used for data calculation and processing. Pharmacokinetic parameters were calculated using the statistical moment method with WinNonlin 8.2 software. Key kinetic parameters included Tmax, T1/2, Cmax, AUC0-24 h etc. Column: Synergi 4 μm Fusion-RP 80 Å Luna C18 2 mm*50 mm, 4 μm; Column temperature: 40° C.; Mobile phase A: Water (0.1% formic acid); Mobile phase B: Acetonitrile; Flow rate: 0.8 mL/min; Gradient elution is adopted, the elution gradient is 0.10 min: 15% B; 1.60 min: 95% B; 1.90 min: 95% B; 1.91 min: 15% B; 2.20 min: 15% B. Injection volume: 1 μL.
Animals: 3 male SD rats with a weight range of 200-220 g were purchased and kept in the laboratory of the Experimental Animal Center for 3 days and then used. They were fasted for 12 hours predose and 4 hours after dosing. Drinking water was free during the test. After the rats were gavage, blood samples were taken according to the established time point.
Solvent: 0.4% ethanol+0.4% Tween80+99.2% (0.5% methylcellulose M450). Preparation of the solution for intragastric administration: Compounds were accurately weighed and added to the solvent. The mixture was then subjected to vortex mixing and sonication until a homogeneous suspension was achieved, thereby preparing medicinal solutions of the desired concentrations.
Compound samples: Typically, multiple structurally analogous compounds (with molecular weights differing by more than 2 units) were accurately weighed and administered together (cassette PK). This approach allows for the simultaneous screening of multiple compounds and comparison of their oral absorption rates. Single compound administration was also employed to study the pharmacokinetics of drug samples in rats.
After intragastric administration, blood was collected from the jugular vein at 0.25, 0.5, 1, 2, 4, 8, 10 and 24 hours. Transfer 20 μL of plasma sample (for blank samples and internal standard blank samples, add 20 μL of blank plasma) to a 1.5 mL centrifuge tube, add 200 μL of internal standard solution (50% methanol in acetonitrile (concentration 100 ng/mL)) (for Double blank samples, add 200 μL of 50% methanol in acetonitrile solution). Vortex the samples for 5 minutes, then centrifuge at 14000 rpm and 4° C. for 5 minutes. Transfer 80 μL and add to 80 μL of water, mix uniformly, and submit for LC-MS/MS analysis.
The compounds were accurately weighed to prepare different concentrations, and quantitative analysis on mass spectrometry was performed to establish a standard curve, and then the concentration of the above-mentioned compound in the plasma was tested to obtain its concentration at different time points. All measurement data were collected and processed by relevant software, and the statistical moment method was used to calculate the pharmacokinetic parameters (mainly including kinetic parameters Tmax, T1/2, Cmax, AUC0-24 h etc).

[2] = system: Jurkat cells; experiment: Inhibition of Jurkat cell proliferation (CellTiter-Glo, 72 hours); format: cell-based; settings: Homo sapiens
Protocol: Select Jurkat cells in good growth condition and digest them with trypsin. Add fresh culture medium, mix thoroughly, and centrifuge at 1000 rpm for 5 minutes. Seed the cells into a 96-well plate at a density of 10,000 cells per well, and incubate overnight in a 37° C. incubator. On the following day, take out of the culture plate and treat the cells with compounds prepared in a five-fold serial dilution. Return the plate to the 37° C. incubator and continue incubation for 72 hours.
After incubation, bring out the cell culture plate and equilibrate it to room temperature. Add 100 μL of CellTiter-Glo reagent to each well, shake in the dark for 2 minutes, and incubate for 10 minutes. Measure the luminescence using an Enspire plate reader. Calculate the inhibition rate using the following formula: Inhibition rate (%)=(1−(RLU_compound−RLU_blank)/(RLU_DMSO−RLU_blank))×100%. Plot the dose-response curve and calculate the IC50 value using XLFit.

[3] = target: T1, hCTPS1 enzyme (Homo sapiens, UniProt P17812); experiment: Inhibition of CTPS1 enzyme activity (ADP-Glo method); format: biochemical; settings: hCTPS1, 90 min reaction at 25° C.
T1 sequence (P17812 1-591): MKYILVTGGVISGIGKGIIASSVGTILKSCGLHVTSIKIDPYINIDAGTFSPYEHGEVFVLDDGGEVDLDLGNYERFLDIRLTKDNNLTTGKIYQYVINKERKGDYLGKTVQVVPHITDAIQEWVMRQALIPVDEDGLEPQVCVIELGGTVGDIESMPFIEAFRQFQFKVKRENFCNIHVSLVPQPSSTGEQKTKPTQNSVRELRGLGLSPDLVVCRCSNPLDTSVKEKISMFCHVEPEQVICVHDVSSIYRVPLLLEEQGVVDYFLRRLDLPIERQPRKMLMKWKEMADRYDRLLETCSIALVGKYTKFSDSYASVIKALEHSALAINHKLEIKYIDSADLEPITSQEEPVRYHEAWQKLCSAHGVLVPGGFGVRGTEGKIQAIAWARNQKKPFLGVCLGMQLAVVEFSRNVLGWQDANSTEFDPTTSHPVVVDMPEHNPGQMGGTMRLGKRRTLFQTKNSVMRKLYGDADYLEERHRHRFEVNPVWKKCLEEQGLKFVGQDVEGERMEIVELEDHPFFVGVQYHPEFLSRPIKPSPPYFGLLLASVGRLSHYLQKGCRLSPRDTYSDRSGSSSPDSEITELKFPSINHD
Protocol: The enzyme activity of CTPS1 was tested using the ADP-Glo method. Compounds were serially diluted in DMSO with 3-fold gradients across ten concentrations. Transfer 0.1 μL of diluted compound to a 384-well plate, centrifuge at 1000 rpm for 1 min. Add 2.5 μL of hCTPS1 enzyme working solution, centrifuge at 1000 rpm for 1 min, and incubate at 25° C. for 10 min. Add 2.5 μL of ATP & UTP solution and incubate at 25° C. for 10 min. Add 5 μL of substrate solution to initiate the reaction and incubate at 25° C. for 90 min. Add 10 μL of ADP-Glo solution to the 384-well plate, centrifuge at 1000 rpm for 1 min, incubate at 25° C. for 40 min, add 20 μL of detection solution, centrifuge at 1000 rpm for 1 min, and incubate at 25° C. for 60 min. […] were read using a BMG microplate reader. Inhibition rate (%) was calculated as follows: Inhibition rate (%)=[(DMSO control well signal−Compound well signal)/(DMSO control well signal−Blank control well signal)]×100%. IC50 values for compounds were analyzed by nonlinear regression in XLFit 5.5.0 software using the formula: Y=Bottom+(Top−Bottom)/(1+10^((LogIC50−X)*HillSlope)) where Y is the inhibition rate and X is the log value of compound concentration.

[4] = Jurkat cells, 72 hours, CellTiter-Glo, read-out: Jurkat (IC50)

| SMILES | IC50 [2, 4] | IC50 [3] | further results |
| --- | --- | --- | --- |
| CCOc1cncc(-c2ccc(NC(=O)C3(c4ccnc(NS(=O)(=O)C5CC5)n4)CCC(=C(F)F)CC3)nc2)n1 (stereo not drawn) [Compound 1] | < 30 nM | < 25 nM | AUC(0-t) ([1]; 3 mg/kg): 68800 ng·h/mL; Cmax ([1]; 3 mg/kg): 11300 ng/mL; Tmax ([1]; 3 mg/kg): 49.8 min; half-life ([1]; 3 mg/kg): 299 min |
| CCOc1cncc(-c2ccc(NC(=O)C3(c4ccnc(NS(=O)(=O)C5CC5)n4)CCC(=CF)CC3)nc2)n1 (stereo not drawn) [Compound 10] | < 30 nM | < 25 nM | AUC(0-t) ([1]; 3 mg/kg): 87200 ng·h/mL; Cmax ([1]; 3 mg/kg): 9330 ng/mL; Tmax ([1]; 3 mg/kg): 200 min; half-life ([1]; 3 mg/kg): 297 min |
| CCOc1cncc(-c2ccc(NC(=O)C3(c4ccnc(NS(=O)(=O)C5CC5)n4)CCC(=CCN4CCN(C)CC4)CC3)nc2)n1 (stereo not drawn) [Compound 13] | < 50 nM | < 50 nM | – |
| CCOc1cncc(-c2ccc(NC(=O)C3(c4ccnc(NS(=O)(=O)C5CC5)n4)CCC(=CCN(C)C)CC3)nc2)n1 (stereo not drawn) [Compound 15] | – | < 100 nM | IC50 ([2]; Jurkat, 72 h, read-out: Jurkat (IC50, nM)): < 50 nM |
| CCOc1cncc(-c2ccc(NC(=O)C3(c4ccnc(NS(=O)(=O)C5CC5)n4)CCC(=CCNS(C)(=O)=O)CC3)nc2)n1 (stereo not drawn) [Compound 23] | < 50 nM | < 50 nM | – |
| CCOc1cncc(-c2ccc(NC(=O)C3(c4ccnc(NS(=O)(=O)C5CC5)n4)CCC(=CCN4CC(OC)C4)CC3)nc2)n1 (stereo not drawn) [Compound 28] | < 15 nM | < 50 nM | AUC(0-t) ([1]; 3 mg/kg): 46.7 ng·h/mL; Cmax ([1]; 3 mg/kg): 33.1 ng/mL; Tmax ([1]; 3 mg/kg): 15 min; half-life ([1]; 3 mg/kg): 108 min |
| CCOc1cncc(-c2ccc(NC(=O)C3(c4ccnc(NS(=O)(=O)C5CC5)n4)CCC(=CCN(C)CCOC)CC3)nc2)n1 (stereo not drawn) [Compound 29] | < 30 nM | < 100 nM | – |
| CCOc1cncc(-c2ccc(NC(=O)C3(c4ccnc(NS(=O)(=O)C5CC5)n4)CCN(C4CC(=C(F)F)C4)CC3)nc2)n1 (stereo not drawn) [Compound 31] | < 50 nM | < 100 nM | – |
| CCOc1cncc(-c2ccc(NC(=O)C3(c4ccnc(NS(=O)(=O)C5CC5)n4)CCC(=CC4CCOCC4)CC3)nc2)n1 (stereo not drawn) [Compound 32] | < 15 nM | < 25 nM | AUC(0-t) ([1]; 3 mg/kg): 15700 ng·h/mL; Cmax ([1]; 3 mg/kg): 4020 ng/mL; Tmax ([1]; 3 mg/kg): 49.8 min; half-life ([1]; 3 mg/kg): 80.4 min |
| CCOc1cncc(-c2ccc(NC(=O)C3(c4ccnc(NS(=O)(=O)C5CC5)n4)CCC(=CC4COC4)CC3)nc2)n1 (stereo not drawn) [Compound 36] | < 5 nM | < 25 nM | AUC(0-t) ([1]; 3 mg/kg): 6250 ng·h/mL; Cmax ([1]; 3 mg/kg): 3770 ng/mL; Tmax ([1]; 3 mg/kg): 15 min; half-life ([1]; 3 mg/kg): 168 min |
| CCOc1cncc(-c2ccc(NC(=O)C3(c4ccnc(NS(=O)(=O)C5CC5)n4)CCC(=C(C)F)CC3)nc2)n1 (stereo not drawn) [Compound 37] | < 30 nM | < 25 nM | – |
| CCOc1cncc(-c2ccc(NC(=O)C3(c4ccnc(NS(=O)(=O)C5CC5)n4)CCC(=C(F)CO)CC3)nc2)n1 (stereo not drawn) [Compound 39] | < 15 nM | < 25 nM | AUC(0-t) ([1]; 2 mg/kg): 1470 ng·h/mL; Cmax ([1]; 2 mg/kg): 837 ng/mL; Tmax ([1]; 2 mg/kg): 79.8 min; half-life ([1]; 2 mg/kg): 149 min |
| CCOc1cncc(-c2ccc(NC(=O)C3(c4ccnc(NS(=O)(=O)C5CC5)n4)CCC(=C(C)CO)CC3)nc2)n1 (stereo not drawn) [Compound 47] | < 15 nM | < 25 nM | AUC(0-t) ([1]; 2 mg/kg): 1410 ng·h/mL; Cmax ([1]; 2 mg/kg): 1820 ng/mL; Tmax ([1]; 2 mg/kg): 15 min; half-life ([1]; 2 mg/kg): 121 min |
| CCOc1cncc(-c2ccc(NC(=O)C3(c4ccnc(NS(=O)(=O)C5CC5)n4)CC(=CC4CCOCC4)C3)nc2)n1 (stereo not drawn) [Compound 48] | < 30 nM | < 100 nM | – |
| CCOc1cncc(-c2ccc(NC(=O)C3(c4ccnc(NS(=O)(=O)C5CC5)n4)CCC(=C(F)CN4CCOCC4)CC3)nc2)n1 (stereo not drawn) [Compound 54] | < 50 nM | < 50 nM | – |
| CCOc1cncc(-c2ccc(NC(=O)C3(c4ccnc(NS(=O)(=O)C5CC5)n4)CCC(=CC4(C)COC4)CC3)nc2)n1 (stereo not drawn) [Compound 62] | < 15 nM | < 25 nM | – |
| CCOc1cncc(-c2ccc(NC(=O)C3(c4ccnc(NS(=O)(=O)C5CC5)n4)CCC(=C(F)CC(C)(C)O)CC3)nc2)n1 (stereo not drawn) [Compound 67] | < 50 nM | < 50 nM | – |

The next lines start with results.

| IC50 [2, 4] | IC50 [3] | SMILES | further results |
| --- | --- | --- | --- |
| < 30 nM | < 50 nM | CCOc1cncc(-c2ccc(NC(=O)C3(c4ccnc(NS(=O)(=O)C5CC5)n4)CC(=CC(=O)OC)C3)nc2)n1 (stereo not drawn) [Compound 14] | – |
| < 50 nM | < 50 nM | CCOc1cncc(-c2ccc(NC(=O)C3(c4ccnc(NS(=O)(=O)C5CC5)n4)CCC(=CCN4CCCC4)CC3)nc2)n1 (stereo not drawn) [Compound 16] | – |
| < 30 nM | < 50 nM | CCOc1cncc(-c2ccc(NC(=O)C3(c4ccnc(NS(=O)(=O)C5CC5)n4)CCC(=CCNC(C)=O)CC3)nc2)n1 (stereo not drawn) [Compound 22] | AUC(0-t) ([1]; 3 mg/kg): 137 ng·h/mL; Cmax ([1]; 3 mg/kg): 177 ng/mL; Tmax ([1]; 3 mg/kg): 15 min; half-life ([1]; 3 mg/kg): 98.4 min |
| < 30 nM | < 50 nM | C=CC(=O)N1CCC(C(=O)Nc2ccc(-c3cncc(OCC)n3)cn2)(c2ccnc(NS(=O)(=O)C3CC3)n2)CC1 [Compound 26] | AUC(0-t) ([1]; 3 mg/kg): 288 ng·h/mL; Cmax ([1]; 3 mg/kg): 118 ng/mL; Tmax ([1]; 3 mg/kg): 30 min; half-life ([1]; 3 mg/kg): 110 min |
| < 100 nM | < 50 nM | CCOc1cncc(-c2ccc(NC(=O)C3(c4ccnc(NS(=O)(=O)C5CC5)n4)CCC(=CCN4CC(O)C4)CC3)nc2)n1 (stereo not drawn) [Compound 27] | – |
| < 15 nM | < 25 nM | CCOc1cncc(-c2ccc(NC(=O)C3(c4ccnc(NS(=O)(=O)C5CC5)n4)CCC(=CCCO)CC3)nc2)n1 (stereo not drawn) [Compound 44] | AUC(0-t) ([1]; 2 mg/kg): 33 ng·h/mL; Cmax ([1]; 2 mg/kg): 10.5 ng/mL; Tmax ([1]; 2 mg/kg): 70.2 min; half-life ([1]; 2 mg/kg): 106 min |
| < 30 nM | < 25 nM | CCOc1cncc(-c2ccc(NC(=O)C3(c4ccnc(NS(=O)(=O)C5CC5)n4)CCC(=CCCOC)CC3)nc2)n1 (stereo not drawn) [Compound 45] | – |
| < 50 nM | < 25 nM | CCOc1cncc(-c2ccc(NC(=O)C3(c4ccnc(NS(=O)(=O)C5CC5)n4)CCC(=Cc4cccnc4)CC3)nc2)n1 (stereo not drawn) [Compound 55] | – |
